Laboratory results taken from patent publication US5162326A, “Pyrimidinedione derivatives, their production and use” (Takeda Chemical Industries, Ltd., priority 1990, dated 1992).

Key:
A-II-receptor = target: T1, A-II-receptor (Bos taurus, UniProt P25104); assay: Inhibition of Binding of Angiotensin-II to Angiotensin Receptor (125I-A-II, membrane fraction of bovine adrenal cortex); details: room temperature, one hour
T1 construct: An A-II-receptor was prepared from the membrane fraction of bovine adrenal cortex; from tissue; host or cells: bovine adrenal cortex, membrane fraction
T1 sequence (P25104 1-359): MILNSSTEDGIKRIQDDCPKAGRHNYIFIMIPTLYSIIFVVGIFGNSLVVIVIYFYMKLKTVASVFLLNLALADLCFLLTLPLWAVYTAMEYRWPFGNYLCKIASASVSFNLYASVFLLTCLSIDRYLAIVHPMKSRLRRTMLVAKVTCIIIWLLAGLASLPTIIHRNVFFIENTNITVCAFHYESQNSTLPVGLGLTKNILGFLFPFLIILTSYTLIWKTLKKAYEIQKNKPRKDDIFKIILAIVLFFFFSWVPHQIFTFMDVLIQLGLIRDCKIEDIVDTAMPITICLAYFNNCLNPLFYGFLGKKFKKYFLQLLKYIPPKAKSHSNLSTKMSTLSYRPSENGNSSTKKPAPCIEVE
Procedure: Inhibition of Binding of Angiotensin-II to Angiotensin Receptor
An experiment of inhibition on the binding of angiotensin-II (A-II) to A-II-receptor was conducted by modifying the method of Douglas et al. [Endocrinology, 102, 685-696 (1978)]. An A-II-receptor was prepared from the membrane fraction of bovine adrenal cortex.
The compound of the present invention (10^-6 M to 10^-8 M) and ^125 I-A-II (1.85 kBq/50 μl) were added to the receptor membrane fraction, and the mixture was incubated at room temperature for one hour. The receptor-bound and free ^125 I-A-II were separated through a filter (Whatman GF/B filter), and the radioactivity of ^125 I-A-II bound to the receptor was measured.

Pressor Response to A II = assay: Inhibitory Effect of the Compound on Pressor Action of A-II in rats; format: in vivo, Jcl: SD rats; details: Rattus norvegicus, po
Excerpt: Inhibitory Effect of the Compound of the Present Invention on Pressor Action of A-II
Jcl: SD rats (9 week old, male) were used. On the day previous to the experiment, these animals were applied with cannulation into the femoral artery and vein under anesthesia with pentobarbital Na. The animals were fasted but allowed to access freely to drinking water until the experiment was started. Just on the day of conducting the experiment, the artery cannula was connected with a blood-pressure transducer, and the average blood pressure was recorded by means of polygraph. Before administration of the drug, the pressor action due to intravenous administration of A-II (100 ng/kg) as the control was measured. The drugs were orally administered, and then, at each point of the measurement, A-II was administered intravenously, and the pressor action was similarly measured. By comparing the pressor action before and after administration of the drug, the percent inhibition by the drug on A-II-induced pressor action was evaluated.

angiotensin II = details: reported in the literature; cited from earlier work

| Compound | IC50 (A-II-receptor) [nM] | inhibition in vivo at 30 mg/kg (Pressor Response to A II) [%] | angiotensin II antagonistic activity (angiotensin II) |
| --- | --- | --- | --- |
| CCCn1c(=O)cc(SC)n(Cc2ccc(-c3ccccc3-c3nn[nH]n3)cc2)c1=O [compound 1] | 860 | – | – |
| CCCn1c(=O)cc(SCC)n(Cc2ccc(-c3ccccc3-c3nn[nH]n3)cc2)c1=O [compound 2] | 20 | ≥ 70 | – |
| CCCSc1cc(=O)n(CCC)c(=O)n1Cc1ccc(-c2ccccc2-c2nnn[nH]2)cc1 [compound 3] | 20 | – | – |
| CCCCSc1cc(=O)n(CCC)c(=O)n1Cc1ccc(-c2ccccc2-c2nn[nH]n2)cc1 [compound 4] | 40 | ≥ 70 | – |
| CCCn1c(=O)cc(SC2CCCCC2)n(Cc2ccc(-c3ccccc3-c3nn[nH]n3)cc2)c1=O [compound 5] | 320 | 30 to 50 | – |
| CCCCCSc1cc(=O)n(CCC)c(=O)n1Cc1ccc(-c2ccccc2-c2nn[nH]n2)cc1 [compound 6] | 20 | 30 to 50 | – |
| CCCn1c(=O)cc(SCc2ccccc2)n(Cc2ccc(-c3ccccc3-c3nn[nH]n3)cc2)c1=O [compound 7] | 330 | < 30 | – |
| CCCn1c(=O)cc(OCC)n(Cc2ccc(-c3ccccc3-c3nn[nH]n3)cc2)c1=O [compound 8] | 60 | ≥ 70 | – |
| CCCCn1c(=O)cc(SCCC)n(Cc2ccc(-c3ccccc3-c3nn[nH]n3)cc2)c1=O [compound 9] | 40 | ≥ 70 | – |
| CCCCn1c(=O)cc(Sc2ccccc2)n(Cc2ccc(-c3ccccc3-c3nn[nH]n3)cc2)c1=O [compound 10] | 320 | < 30 | – |
| CCCNc1cc(=O)n(CCC)c(=O)n1Cc1ccc(-c2ccccc2-c2nn[nH]n2)cc1 [compound 14] | 340 | < 30 | – |
| CCCOc1cc(=O)n(CCC)c(=O)n1Cc1ccc(-c2ccccc2-c2nnn[nH]2)cc1 [compound 18] | 140 | ≥ 70 | – |
| CCCc1cc(=O)n(CC)c(=O)n1Cc1ccc(-c2ccccc2-c2nn[nH]n2)cc1 [compound 23] | 20 | ≥ 70 | – |
| CCCc1cc(=O)n(CCC)c(=O)n1Cc1ccc(-c2ccccc2-c2nn[nH]n2)cc1 [compound 25] | 20 | ≥ 70 | – |
| CCCCn1c(=O)cc(CCC)n(Cc2ccc(-c3ccccc3-c3nn[nH]n3)cc2)c1=O [compound 26] | 20 | ≥ 70 | – |
| CCCc1cc(=O)n(CC(=O)OC)c(=O)n1Cc1ccc(-c2ccccc2-c2nn[nH]n2)cc1 [compound 27] | 10 | ≥ 70 | – |
| CCCc1cc(=O)n(CC(=O)OCC)c(=O)n1Cc1ccc(-c2ccccc2-c2nn[nH]n2)cc1 [compound 28] | 20 | ≥ 70 | – |
| CNCC(=O)N[C@@H](CCCN=C(N)N)C(=O)N[C@H](C(=O)N[C@@H](Cc1ccc(O)cc1)C(=O)N[C@H](C(=O)N[C@@H](Cc1cnc[nH]1)C(=O)N1CCC[C@H]1C(=O)N[C@@H](C)C(=O)O)C(C)C)C(C)C [saralasin] | – | – | potent angiotensin II antagonistic activity |
